In patent US8871751B2, “Compositions and methods relating to nuclear hormone and steroid hormone receptors including inhibitors of estrogen receptor alpha-mediated gene expression and inhibition of breast cancer” (The Board of Trustees of the University of Illinois, priority 2008, dated 2014):
“Also recorded” adds a separate entry of the source.

Assays:
ERα = target: T1, ERα (Homo sapiens, UniProt P03372); experiment: pS2 mRNA induction in MCF7ERαHA cells; assay type: cell-based; parameters: endogenous in cells; details: 10 μM, Dox, 100 pM E2, 24 h
T1 sequence (P03372 1-595): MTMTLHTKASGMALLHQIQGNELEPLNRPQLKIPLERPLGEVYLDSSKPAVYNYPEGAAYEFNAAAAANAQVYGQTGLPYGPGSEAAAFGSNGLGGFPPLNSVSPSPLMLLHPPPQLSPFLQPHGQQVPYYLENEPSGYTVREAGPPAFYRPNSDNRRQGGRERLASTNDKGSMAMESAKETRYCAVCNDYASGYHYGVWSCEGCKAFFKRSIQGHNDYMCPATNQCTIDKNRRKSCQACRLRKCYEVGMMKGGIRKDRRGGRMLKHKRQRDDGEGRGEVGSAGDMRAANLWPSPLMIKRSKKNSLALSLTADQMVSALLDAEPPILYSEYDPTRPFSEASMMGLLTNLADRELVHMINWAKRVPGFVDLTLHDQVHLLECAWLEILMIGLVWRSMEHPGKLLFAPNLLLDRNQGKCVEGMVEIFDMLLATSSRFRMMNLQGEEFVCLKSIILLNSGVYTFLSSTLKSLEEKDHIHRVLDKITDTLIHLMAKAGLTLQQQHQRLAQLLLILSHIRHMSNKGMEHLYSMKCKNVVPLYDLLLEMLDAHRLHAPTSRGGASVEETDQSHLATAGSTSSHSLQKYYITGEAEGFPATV
Excerpt: A model for tamoxifen-resistant breast cancers that overexpress ERα is MCF7ERαHA cells, which is a tetracycline-inducible MCF-7 model in which doxycycline (Dox) induces overexpression of ERα (40,41). In contrast to MCF-7 cells, in these cells Tam and OHT are potent agonists (2,42) and OHT, which stabilizes ERα, induced proteinase inhibitor 9 (PI-9) mRNA and protein more effectively than E2 (2,43). MCF7ERαHA cells were maintained in 10% 6XCD-treated FBS (40,41). All cells were in 0.1% DMSO vehicle and contained the indicated concentrations of TPBM added at the same time as the E2 or OHT. To induce PI-9 mRNA, the cells were treated with 0.5 μg/ml doxycycline to induce ERα and ethanol vehicle, 100 pM E2 or 500 pM OHT for 24 h, mRNA was extracted and PI-9 mRNA levels were determined by quantitative RT-PCR as described (2).
Saturating E2 (100 pM, FIG. 7A) and OHT (500 pM, FIG. 7B) induced PI-9 mRNA by 150 and 500 fold, respectively. […] The less complete inhibition of PI-9 induction in the OHT-treated cells likely results from the ˜4 fold higher level of ERα after OHT treatment than after E2 treatment (FIG. 7C). The PI-9 gene is representative of the many genes that contain complex estrogen response elements including ERE half sites. To confirm that TPBM inhibits expression of an endogenous gene that contains a near consensus ERE we used the pS2 gene. […]

BT474 cells = experiment: E2-ERα-dependent growth of BT474 cells (MTS); assay type: cell-based; details: Homo sapiens, BT-474, 96 h, 100 pM E2, 4 days, read-out: IC50 for inhibition of E2-ERα-dependent growth of BT474 cells
Description: FIG. 20 illustrates further activity of TPSF in the inhibition of tamoxifen-resistant human breast cancer cells. The effects of TPSF on the E2-ERα-dependent growth of tamoxifen-resistant BT474 and ZR-75 cells were assessed. […] The cells were maintained in medium containing 10% CD-FBS (ZR-75) or 10% CD-CS (BT474) containing or lacking 100 pM E2 and the indicated concentrations of TPSF. Viable cells were measured by comparison to a standard curve of cell number versus absorbance using the MTS assay. Data represents the average of at least 4 wells. IC50 values for TPSF inhibition of cell growth were calculated by curve-fitting using Sigma Plot.
Assays for Cell Growth and Viability. Cells were maintained in the media listed above containing CD-treated serum for at least 4 days prior to the experiment. To minimize cell aggregation, MCF-7 cells were harvested in 10 mM Hepes, pH 7.4, 1 mM EDTA. Other cell lines were harvested in trypsin-EDTA. 1,000 cells were plated into each well of a 96 well plate. For slow growing ZR-75 cells, 2,000 cells were plated/well. The cells were maintained in medium containing CD-treated serum for 24 hours. At 24 hours the medium was changed and E2 and DMSO vehicle or TPSF in DMSO was added. […] After 4 days viable cells were determined using a cell viability test, Promega CellTiter 96 Aqueous One Solution Cell Proliferation Assay (MTS) (Promega, Wis.).

NF-κB = experiment: NF-κB-mediated induction of IL-8 mRNA by TNF-α in MCF-7 cells; assay type: cell-based, human
Description: FIG. 14 illustrates results of testing for specific inhibition of E2-ERα-mediated gene expression. The effects of TPSF on an NF-κB regulated gene, IL-8, were tested in MCF-7 cells maintained for 24 hours in medium containing 10 ng/ml TNF-α alone or TNF-α and 30 μM TPSF. RNA was extracted and IL-8 mRNA levels were measured by quantitative (q)RT-PCR. Data shown is the average of 3 experiments±SEM.
Endogenous Gene Expression. MCF-7 cells or MCF7ERαHA cells were maintained for 4 days in medium containing 5% CD calf serum (MCF-7 cells) or 10% 6×CD-FBS (MCF7ERαHA cells). In assays of TPSF inhibition of PI-9 induction, cells were plated, incubated for 24 hours in the indicated concentrations of TPSF and then maintained 4 hours with and without E2, with and without TPSF. To induce ERα, MCF7ERαHA cells were also maintained in 0.5 μg/ml Dox for 24 hours prior to addition of E2 or OHT with or without TPSF. For induction of cyclin D1, 24 hours after plating the cells, E2 with and without TPSF was added, the cells were maintained for 24 hours, RNA was extracted and mRNA levels were determined by quantitative RT-PCR as described (19, 26). Actin mRNA levels were used as the qRT-PCR internal standard. The primers and sequences used in qRT-PCR were as follows.

| SMILES | reduction of induction of pS2 mRNA (ERα) | induction of pS2 mRNA (ERα; 24±3 fold without TPBM) | IC50 (BT474 cells) | effect on NF-κB-mediated induction of IL-8 mRNA by TNF-α (NF-κB; 30 μM, 10 ng/ml TNF-α, 24 h) | IC50 (NF-κB; Homo sapiens, MCF7, TNF-α, IL-8 mRNA, read-out: IC50 for inhibition of NF-κB gene expression) |
| --- | --- | --- | --- | --- | --- |
| Cn1c(=O)c2nc(CSCc3ccccc3)[nH]c2n(C)c1=O [Compound 95910, 8-Benzylsulfanylmethyl-1,3-dimethyl-3,7-dihydro-purine-2,6-dione] | 50% | 12±2 fold |  |  |  |
| Cn1c(=S)c2[nH]c(SCCCC(=O)c3ccc(F)cc3)nc2n(C)c1=O [TPSF, Butyrophenone, p-fluoro-4-(1,2,3,6,-tetrahydro-1,3-dimethyl-2-oxo-6-thionopurin-8-ylthio)] |  |  | 1.6 µM | no effect; also recorded: absence of an effect | > 30 µM |
